# Data from the supplement of paper PMC10307832.
# Assays:
# Test in all cases: relative viability (nuclei count vs DMSO), 5 days (fraction); higher = more cells survive
# Elesclomol + Dasatinib = compound: CN(NC(=O)CC(=O)NN(C)C(=S)c1ccccc1)C(=S)c1ccccc1 [Elesclomol] + Cc1nc(Nc2ncc(C(=O)Nc3c(C)cccc3Cl)s2)cc(N2CCN(CCO)CC2)n1 [Dasatinib] (partner 0.075 µM)
# Outline: (§1)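 A single step with final 0.05% Triton X-100, 1% formaldehyde and 1 ug/ml Hoechst fixed the cells and stained nuclei 5 days after treatment. Lung cancer cell lines in 1536-well plates had been treated by pin tool the day after seeding with one drug alone or a fixed anchor-drug dose plus five library-drug doses (not always all listed) in √10 steps, and nuclei were counted on 4× images. Relative viability is the ratio of nuclei in treated wells to nuclei in vehicle wells, taken as the median of duplicate plates.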
# Elesclomol + Phenformin = compound: CN(NC(=O)CC(=O)NN(C)C(=S)c1ccccc1)C(=S)c1ccccc1 [Elesclomol] + N=C(N)NC(=N)NCCc1ccccc1 [Phenformin] (partner 250 µM)
# Outline: as §1
# Elesclomol + Pictilisib = compound: CN(NC(=O)CC(=O)NN(C)C(=S)c1ccccc1)C(=S)c1ccccc1 [Elesclomol] + CS(=O)(=O)N1CCN(Cc2cc3nc(-c4cccc5[nH]ncc45)nc(N4CCOCC4)c3s2)CC1 [Pictilisib] (partner 1 µM)
# Outline: as §1
# Elesclomol + Alpelisib = compound: CN(NC(=O)CC(=O)NN(C)C(=S)c1ccccc1)C(=S)c1ccccc1 [Elesclomol] + Cc1nc(NC(=O)N2CCC[C@H]2C(N)=O)sc1-c1ccnc(C(C)(C)C(F)(F)F)c1 [Alpelisib] (partner 2 µM)
# Outline: as §1
# Elesclomol + Lapatinib = compound: CN(NC(=O)CC(=O)NN(C)C(=S)c1ccccc1)C(=S)c1ccccc1 [Elesclomol] + CS(=O)(=O)CCNCc1ccc(-c2ccc3ncnc(Nc4ccc(OCc5cccc(F)c5)c(Cl)c4)c3c2)o1 [Lapatinib] (partner 2 µM)
# Outline: as §1
Cell Line,relative viability (Elesclomol + Dasatinib; first compound 0.003162 µM),relative viability (Elesclomol + Dasatinib; first compound 0.01 µM),relative viability (Elesclomol + Dasatinib; first compound 0.03162 µM),relative viability (Elesclomol + Dasatinib; first compound 0.1 µM),relative viability (Elesclomol + Phenformin; first compound 0.003162 µM),relative viability (Elesclomol + Phenformin; first compound 0.01 µM),relative viability (Elesclomol + Phenformin; first compound 0.03162 µM),relative viability (Elesclomol + Phenformin; first compound 0.1 µM),relative viability (Elesclomol + Pictilisib; first compound 0.003162 µM),relative viability (Elesclomol + Pictilisib; first compound 0.01 µM),relative viability (Elesclomol + Pictilisib; first compound 0.03162 µM),relative viability (Elesclomol + Pictilisib; first compound 0.1 µM),relative viability (Elesclomol + Alpelisib; first compound 0.003162 µM),relative viability (Elesclomol + Alpelisib; first compound 0.01 µM),relative viability (Elesclomol + Alpelisib; first compound 0.03162 µM),relative viability (Elesclomol + Alpelisib; first compound 0.1 µM),relative viability (Elesclomol + Lapatinib; first compound 0.003162 µM),relative viability (Elesclomol + Lapatinib; first compound 0.01 µM),relative viability (Elesclomol + Lapatinib; first compound 0.03162 µM),relative viability (Elesclomol + Lapatinib; first compound 0.1 µM)
ChaGo-K-1,0.609,0.458,0.214,0.116,0.503,0.393,0.275,0.174,0.481,0.239,0.194,0.242,–,–,–,–,–,–,–,–
EKVX,0.474,0.315,0.226,0.202,0.219,0.225,0.201,0.172,0.386,0.249,0.176,0.157,0.857,0.369,0.328,0.174,0.204,0.204,0.16,0.141
EMC-BAC-2,0.361,0.28,0.286,0.138,0.552,0.372,0.414,0.266,0.606,0.374,0.48,0.316,0.743,0.649,0.616,0.389,0.841,0.797,0.757,0.541
EPLC-272H,0.397,–,0.405,0.059,0.293,–,0.291,0.172,0.349,–,0.341,0.11,1.07,–,0.861,0.249,0.873,–,1.04,0.119
H3255,0.387,0.396,0.274,0.222,0.312,0.338,0.366,0.313,0.433,0.336,0.315,0.266,0.721,0.473,0.348,0.309,0.246,0.265,0.207,0.232
HARA,0.244,0.312,0.283,0.0991,0.506,0.413,0.475,0.169,0.548,0.325,0.363,0.081,0.803,0.687,0.944,0.17,0.679,0.715,0.756,0.186
HCC-15,0.533,0.386,0.169,0.0668,0.452,0.438,0.335,0.231,0.719,0.522,0.523,0.289,0.931,0.645,0.559,0.236,0.869,0.684,0.574,0.284
HCC-44,–,–,–,–,0.375,0.148,0.091,0.0922,0.592,0.578,0.554,0.322,0.812,0.723,0.768,0.371,0.95,0.941,1.03,0.727
HCC-78,0.28,0.407,0.319,0.34,0.631,0.758,0.539,0.615,0.252,0.2,0.229,0.217,0.27,0.354,0.325,0.307,0.704,0.65,0.932,0.798
